What all share (test): NCI anticancer screen, dose series, 48 h
The subject of experiment [1] is PC-3 prostate.
Experiment [2] relates to SR leukemia.
Experiment [3] concerns SF-539 CNS.
For experiment [4], the system named is HCT-15 colon.
In experiment [5] the test system is UO-31 renal.
The test system of experiment [6] is SK-MEL-28 melanoma.
Experiment [7] concerns 786-0 renal.
The subject of experiment [8] is SF-268 CNS.
Experiment [9] concerns HS 578T breast.
Experiment [10] concerns CCRF-CEM leukemia.

SMILES strings stand for the structures.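 Assay format: 96-well plates, 48-hour exposure. GI50 marks 50% less growth. At the TGI there is no net growth.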

Turning to `S=c1[nH]nc(SCc2ccccc2Cl)c2[nH]cnc12`, the TGI in experiment [1], in [2], in experiment [3], in experiment [4], in [5] and in experiment [6] was greater than 100 µM throughout. Also, the TGI in experiment [7], in experiment [8], in [9] and in experiment [10] was greater than 100 µM throughout.

With `COc1cccc2ccc3c(c12)C(=O)OC31CCc2c(C)cccc21` (stereo not given), the TGI in experiment [1] is greater than 100 µM; in experiment [2], 18.4 µM; in [3], greater than 100 µM; in experiment [4] it was greater than 46.4 µM; in [5] it was 26.3 µM; in experiment [6], greater than 46.4 µM. The TGI in [7] is greater than 46.4 µM; in [8], greater than 46.4 µM; in [9] it was greater than 100 µM; in experiment [10], greater than 100 µM.

With `C=Cc1cnc([N+](=O)[O-])n1C`, the TGI in experiment [1] is greater than 100 µM; in [2] it was 60.5 µM; in [3], greater than 100 µM; in experiment [4] it was greater than 100 µM; in [5], greater than 100 µM; in experiment [6] it was greater than 100 µM. Besides, the TGI was greater than 100 µM in experiment [7], greater than 100 µM in [8], 99.9 µM in [9] and greater than 100 µM in [10].

Regarding `COc1cc(/C=C/c2cc(/C=C/c3ccc(O)c(OC)c3)[nH]c(=O)n2)ccc1O`, the GI50 is 3.2 µM in [1]; 1.91 µM in experiment [2]; 3.87 µM in experiment [3]; 5.43 µM in experiment [4]; 3.71 µM in experiment [5]; 3.05 µM in experiment [6]. In addition, the GI50 in experiment [7] is 2.73 µM; in [8], 4.58 µM; in experiment [9], 1.8 µM; in experiment [10], 2.1 µM. Besides, the TGI in [1] was 18.6 µM; in experiment [2], 6.18 µM; in experiment [3], greater than 100 µM; in [4], greater than 100 µM; in [5], 58.6 µM; in experiment [6] it was 13.1 µM. Further, the TGI is 33 µM in experiment [7], greater than 100 µM in [8], 6.75 µM in experiment [9] and 6.22 µM in experiment [10].

Consider `NC(=S)N/N=C\c1nccc2c(C(F)(F)C(F)(F)C(F)(F)F)cccc12`, for which the GI50 in [1] was 0.0661 µM; in experiment [2], 0.0433 µM; in experiment [3], 0.193 µM; in experiment [4] it was 0.0488 µM; in [5], 0.09 µM; in experiment [6] it was 0.25 µM. The GI50 in [7] was 0.26 µM; in experiment [8], 0.0983 µM; in experiment [9], 0.889 µM; in experiment [10], 0.0427 µM. For the same molecule, the TGI is greater than 22.5 µM in experiment [1]; greater than 32.4 µM in experiment [2]; 0.772 µM in experiment [3]; greater than 100 µM in [4]; 0.892 µM in [5]; 3.26 µM in [6]. For the same molecule, the TGI was 0.978 µM in [7], 4.22 µM in experiment [8], 22.6 µM in experiment [9] and greater than 100 µM in [10].

As to `CC(=O)Nc1cc2cc(NS(=O)(=O)c3cc(C(F)(F)F)cc(C(F)(F)F)c3)ccc2oc1=O`, the TGI in experiment [1] was greater than 100 µM; in experiment [2], greater than 100 µM; in [3], 96.6 µM; in experiment [4], greater than 100 µM; in experiment [5], greater than 100 µM; in experiment [6] it was greater than 100 µM. The TGI in experiment [7], in experiment [8], in experiment [9] and in experiment [10] was greater than 100 µM in each case.

In the case of `C[C@H]1CC2=CC(=O)CC[C@]2(C)[C@H]2CC[C@@]3(C)[C@@H](CC[C@]3(C)O)[C@H]12`, the GI50 in experiment [1] was 8.65 µM; in experiment [2], 21.7 µM; in experiment [3], 32.5 µM; in experiment [4], 28.2 µM; in [5] it was 20.6 µM; in [6], 29.3 µM. Moreover, the GI50 in experiment [7] is 42.5 µM; in experiment [8], 33.3 µM; in experiment [9], 30.7 µM; in experiment [10], 12.1 µM. For the same molecule, the TGI in experiment [1] was 99.7 µM; in [2] it was 55.5 µM; in experiment [3] it was greater than 100 µM; in [4], greater than 100 µM; in experiment [5], greater than 78.5 µM; in [6] it was greater than 85.2 µM. Further, the TGI in experiment [7] is greater than 100 µM; in [8] it was greater than 100 µM; in [9] it was greater than 89 µM; in experiment [10], 53.7 µM.

As to `Cc1ccc(S(=O)(=O)c2ccsc2N)cc1`, the GI50 in [1] is greater than 100 µM; in experiment [2], greater than 100 µM; in experiment [3], greater than 100 µM; in experiment [4] it was greater than 100 µM; in experiment [5], 47.2 µM; in experiment [6], greater than 100 µM. Further, the GI50 in [7] was greater than 100 µM; in [8], 97.7 µM; in experiment [9], greater than 100 µM; in [10] it was greater than 100 µM. Moreover, the TGI in experiment [1], in experiment [2], in experiment [3], in experiment [4], in experiment [5] and in experiment [6] was greater than 100 µM throughout. For the same molecule, the TGI in experiment [7], in [8], in [9] and in [10] was greater than 100 µM in each case.
